Laboratory results taken from patent US20130143929A1, “FUNGICIDAL IMIDAZOLES” (EI DU PONT DE NEMOURS AND COMPANY, priority 2010, published 2013).
Marks after values point to notes of the source that are not given here.

Experiments:
Format in all cases: in vivo
[1] = tested on: Septoria tritici (the causal agent of wheat leaf blotch); test: Test B: wheat leaf blotch, preventive spray on wheat seedlings, visual disease rating; details: wheat leaf blotch, preventive spray on wheat seedlings; asterisk: 40 ppm test suspension
Summary of the method: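 Wheat seedlings sprayed to run-off with compound suspension (acetone/water with 250 ppm Trem 014; 200 ppm ≈ 800 g/ha, some at 40 ppm), inoculated next day with Septoria tritici spores. 48 h saturated humidity at 24 °C, then 19 days at 20 °C; visual rating, 100 = full control.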

[2] = tested on: Blumeria graminis f. sp. tritici (also known as Erysiphe graminis f. sp. tritici, the causal agent of wheat powdery mildew); test: Test D: wheat powdery mildew, preventive spray on wheat seedlings, visual disease rating; details: wheat powdery mildew, preventive spray on wheat seedlings
Summary of the method: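 Compound suspended in acetone/water (50/50) with 250 ppm Trem 014 and sprayed to run-off on wheat seedlings (200 ppm ≈ 800 g/ha), then inoculated next day with spore dust. Disease rated visually after 8 days at 20 °C as % control relative to untreated plants (0-100).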

[3] = tested on: Botrytis cinerea (the causal agent of tomato Botrytis); test: Test C: tomato Botrytis, preventive spray on tomato seedlings, visual disease rating; details: tomato Botrytis, preventive spray on tomato seedlings; asterisk: 40 ppm test suspension
Summary of the method: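 Test suspension (acetone/water with 250 ppm Trem 014; 200 ppm equivalent to 800 g/ha) sprayed to run-off on tomato seedlings; B. cinerea spores inoculated next day. After 48 h saturated humidity at 20° C then 3 days at 24° C, disease rated visually as % control relative to untreated controls (0–100).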

[4] = tested on: Puccinia recondite f. sp. tritici (the causal agent of wheat leaf rust); test: Test A: wheat leaf rust, preventive spray on wheat seedlings, visual disease rating; details: wheat leaf rust, preventive spray on wheat seedlings; asterisk: 40 ppm test suspension
Summary of the method: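 Wheat seedlings were sprayed to run-off with compound suspended in acetone/water containing 250 ppm Trem 014 (200 ppm ≈ 800 g/ha; some at 40 ppm). Puccinia recondite spores were inoculated the next day. Plants were held 24 h saturated at 20° C, then 7 days at 20° C, and disease control was rated visually on a 0–100 scale against controls.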

[5] = asterisk: 40 ppm test suspension

In the case of `Cc1cc(F)ccc1C(O)c1cnc(C)n1-c1c(F)cc(Cl)cc1F` (stereo not shown) [compound 109], the “Test B rating (100 = 100% disease control, 0 = no disease control relative to the controls)” value [1] is reported as 94* %, the “Test D rating (100 = 100% disease control, 0 = no disease control relative to the controls)” value [2, 5] is reported as 0* % and the “Test C rating (100 = 100% disease control, 0 = no disease control relative to the controls)” value [3] is reported as 0* %. The “Test A rating (100 = 100% disease control, 0 = no disease control relative to the controls)” value [4] was 99* %.
For `Cc1cc(F)ccc1C(O)c1c(Br)nc(C)n1-c1c(F)cc(Cl)cc1F` (stereo not shown) [compound 110], the “Test B rating (100 = 100% disease control, 0 = no disease control relative to the controls)” value [1] was 100* %, the “Test D rating (100 = 100% disease control, 0 = no disease control relative to the controls)” value [2, 5] was 0* % and the “Test C rating (100 = 100% disease control, 0 = no disease control relative to the controls)” value [3] was 0* %. The “Test A rating (100 = 100% disease control, 0 = no disease control relative to the controls)” value [4] was 96* %.
`Cc1cc(F)ccc1C(O)c1c(Cl)nc(C)n1-c1c(F)cc(Cl)cc1F` (stereo not shown) [compound 111] was tested, and the “Test B rating (100 = 100% disease control, 0 = no disease control relative to the controls)” value [1] was 100* %, the “Test D rating (100 = 100% disease control, 0 = no disease control relative to the controls)” value [2, 5] was 0* % and the “Test C rating (100 = 100% disease control, 0 = no disease control relative to the controls)” value [3] was 0* %. For the same compound, the “Test A rating (100 = 100% disease control, 0 = no disease control relative to the controls)” value [4] was 98* %.
`Cc1ncc(C(O)c2ccc(Cl)cc2Cl)n1-c1c(F)cc(Cl)cc1F` (stereo not shown) [compound 112] was tested, and the “Test B rating (100 = 100% disease control, 0 = no disease control relative to the controls)” value [1] was 100* %, the “Test D rating (100 = 100% disease control, 0 = no disease control relative to the controls)” value [2, 5] was 0* % and the “Test C rating (100 = 100% disease control, 0 = no disease control relative to the controls)” value [3] was 0* %. The “Test A rating (100 = 100% disease control, 0 = no disease control relative to the controls)” value [4] was 74* %.
With `Cc1nc(Br)c(C(O)c2ccc(Cl)cc2Cl)n1-c1c(F)cc(Cl)cc1F` (stereo not shown) [compound 113] the “Test B rating (100 = 100% disease control, 0 = no disease control relative to the controls)” value [1] was 100* %, the “Test D rating (100 = 100% disease control, 0 = no disease control relative to the controls)” value [2, 5] was 0* % and the “Test C rating (100 = 100% disease control, 0 = no disease control relative to the controls)” value [3] was 0* %. The “Test A rating (100 = 100% disease control, 0 = no disease control relative to the controls)” value [4] was 95* %.
In the case of `Cc1nc(Cl)c(C(O)c2ccc(Cl)cc2Cl)n1-c1c(F)cc(Cl)cc1F` (stereo not shown) [compound 114], the “Test B rating (100 = 100% disease control, 0 = no disease control relative to the controls)” value [1] is reported as 100* %, the “Test D rating (100 = 100% disease control, 0 = no disease control relative to the controls)” value [2, 5] is reported as 0* % and the “Test C rating (100 = 100% disease control, 0 = no disease control relative to the controls)” value [3] is reported as 0* %. The “Test A rating (100 = 100% disease control, 0 = no disease control relative to the controls)” value [4] was 99* %.
For `Cc1ncc(C(O)c2ccc(F)cc2Cl)n1-c1c(F)cc(Cl)cc1F` (stereo not shown) [compound 115], the “Test B rating (100 = 100% disease control, 0 = no disease control relative to the controls)” value [1] was 96* %, the “Test D rating (100 = 100% disease control, 0 = no disease control relative to the controls)” value [2, 5] was 0* % and the “Test C rating (100 = 100% disease control, 0 = no disease control relative to the controls)” value [3] was 97* %. The “Test A rating (100 = 100% disease control, 0 = no disease control relative to the controls)” value [4] was 100* %.
`Cc1nc(Br)c(C(O)c2ccc(F)cc2Cl)n1-c1c(F)cc(Cl)cc1F` (stereo not shown) [compound 116] was tested, and the “Test B rating (100 = 100% disease control, 0 = no disease control relative to the controls)” value [1] was 100* %, the “Test D rating (100 = 100% disease control, 0 = no disease control relative to the controls)” value [2, 5] was 0* % and the “Test C rating (100 = 100% disease control, 0 = no disease control relative to the controls)” value [3] was 0* %. For the same compound, the “Test A rating (100 = 100% disease control, 0 = no disease control relative to the controls)” value [4] was 99* %.
With `Cc1nc(Cl)c(C(O)c2ccc(F)cc2Cl)n1-c1c(F)cc(Cl)cc1F` (stereo not shown) [compound 117] the “Test B rating (100 = 100% disease control, 0 = no disease control relative to the controls)” value [1] was 100* %, the “Test D rating (100 = 100% disease control, 0 = no disease control relative to the controls)” value [2, 5] was 0* % and the “Test C rating (100 = 100% disease control, 0 = no disease control relative to the controls)” value [3] was 0* %. For the same compound, the “Test A rating (100 = 100% disease control, 0 = no disease control relative to the controls)” value [4] was 99* %.
With `OC(c1ccc(F)cc1F)c1c(Cl)ncn1-c1c(F)cc(F)cc1Cl` (stereo not shown) [compound 118] the “Test B rating (100 = 100% disease control, 0 = no disease control relative to the controls)” value [1] was 100* %, the “Test D rating (100 = 100% disease control, 0 = no disease control relative to the controls)” value ([2]; no asterisk (standard test suspension concentration, not 40 ppm)) was 48% and the “Test C rating (100 = 100% disease control, 0 = no disease control relative to the controls)” value [3] was 91* %. The “Test A rating (100 = 100% disease control, 0 = no disease control relative to the controls)” value [4] was 100* %.
In the case of `OC(c1ccc(F)cc1F)c1c(Br)ncn1-c1c(F)cc(Cl)cc1F` (stereo not shown) [compound 119], the “Test B rating (100 = 100% disease control, 0 = no disease control relative to the controls)” value [1] is reported as 100* %, the “Test D rating (100 = 100% disease control, 0 = no disease control relative to the controls)” value [2, 5] is reported as 0* % and the “Test C rating (100 = 100% disease control, 0 = no disease control relative to the controls)” value [3] is reported as 97* %. The “Test A rating (100 = 100% disease control, 0 = no disease control relative to the controls)” value [4] was 98* %.
In the case of `OC(c1ccc(F)cc1F)c1c(Cl)ncn1-c1c(F)cc(Cl)cc1F` (stereo not shown) [compound 120], the “Test B rating (100 = 100% disease control, 0 = no disease control relative to the controls)” value [1] is reported as 100* %, the “Test D rating (100 = 100% disease control, 0 = no disease control relative to the controls)” value [2, 5] is reported as 0* % and the “Test C rating (100 = 100% disease control, 0 = no disease control relative to the controls)” value [3] is reported as 99* %. The “Test A rating (100 = 100% disease control, 0 = no disease control relative to the controls)” value [4] was 98* %.
With `OC(c1ccc(F)cc1F)c1c(Cl)nc(Br)n1-c1c(F)cc(F)cc1Cl` (stereo not shown) [compound 121] the “Test B rating (100 = 100% disease control, 0 = no disease control relative to the controls)” value [1] was 100* %, the “Test D rating (100 = 100% disease control, 0 = no disease control relative to the controls)” value [2, 5] was 98* % and the “Test C rating (100 = 100% disease control, 0 = no disease control relative to the controls)” value [3] was 100* %. For the same compound, the “Test A rating (100 = 100% disease control, 0 = no disease control relative to the controls)” value [4] was 100* %.
